Data published in US6444617B1, “Fused-heterocycle dicarboxylic acid diamide derivatives or salts thereof, herbicide and usage thereof” (Nihon Nohyaku Co., Ltd., priority 1998, dated 2002).

Tests used:
Type in all cases: in vivo
[1] = system: barnyard grass (Echinochloa crus-galli Beauv.); experiment: Test Example 1: herbicidal effect on paddy field weeds before emergence; settings: Dosage 5 kg/ha
Outline: (§1)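 Grading reflects percent control relative to untreated plots, evaluated three weeks post-application. Treatment was a soil application of compound solution, predetermined dose, made to paddy-state pots before weed seeds germinated.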

[2] = system: bulrush (Scirpus juncoides Roxb.); experiment: as above; settings: Dosage 5 kg/ha
Outline: as §1

[3] = system: barnyard grass (Echinochloa crus-galli Beauv.); experiment: Test Example 2: herbicidal effect on paddy field weeds after emergence; settings: Dosage 5 kg/ha; one-leaved stage; 21 days after treatment
Outline: (§2)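 Weeds were sown in 1/10000 are pots of soil flooded to paddy conditions and grown to the one-leaf stage, then the soil was treated with a solution of compound at a predetermined dosage.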

[4] = system: bulrush (Scirpus juncoides Roxb.); experiment: as above; settings: Dosage 5 kg/ha; one-leaved stage; 21 days after treatment
Outline: as §2

[5] = system: monochoria (Monochoria vaginalis Presl); experiment: as above; settings: Dosage 5 kg/ha; one-leaved stage; 21 days after treatment
Outline: as §2

[6] = system: barnyard grass (Echinochloa crus-galli Beauv.), Ec; experiment: Test Example 3: herbicidal effect on upland weeds before emergence; settings: dosage 5 kg/ha
Outline: (§3)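 Read-out is the weed-killing rate, scored fourteen days after a single spray application made before the weeds emerged. The spray was a liquid agent carrying the active compound at a prescribed dose.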

[7] = system: bird's eye speedwell (Veronica persica Poir.), Vp; experiment: as above; settings: dosage 5 kg/ha
Outline: as §3

[8] = system: cleavers (Galium aparine L.), Ga; experiment: as above; settings: dosage 5 kg/ha
Outline: as §3

[9] = system: cocklebur (Xanthium strumarium L.), Xs; experiment: as above; settings: dosage 5 kg/ha
Outline: as §3

[10] = system: forxtail grass (Alopecurus aequalis var. amurensis Ohwi), Am; experiment: as above; settings: foxtail grass, dosage 5 kg/ha
Outline: as §3

[11] = system: velvetleaf (Abutilon theophtasti L.), At; experiment: as above; settings: dosage 5 kg/ha
Outline: as §3

soybean plant (So) = experiment: Test Example 3: phytotoxicity to upland crop plants, treatment before emergence; settings: dosage 5 kg/ha
Outline: (§4)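 Pre-emergence spray, test compound at prescribed conc. in liquid formulation; crop injury (soybean, wheat) read at day 14, scored by criterion.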

wheat (Wh) = experiment: as above; settings: dosage 5 kg/ha
Outline: as §4

[12] = system: barnyard grass (Echinochloa crus-galli Beauv.), Ec; experiment: Test Example 4: herbicidal effect on upland weeds after emergence; settings: dosage 5 kg/ha; sprayed after emergence; judged 14 days after treatment
Outline: (§5)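 Post-emergence foliar spray, compound at prescribed concentration, applied at defined leaf stages; weeds plus soybean/wheat grown in soil vats. Read-out: weed-killing rate and crop injury, 14 d post-treatment.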

[13] = system: bird's eye speedwell (Veronica persica Poir.), Vp; experiment: as above; settings: dosage 5 kg/ha; sprayed after emergence; judged 14 days after treatment
Outline: as §5

[14] = system: cleavers (Galium aparine L.), Ga; experiment: as above; settings: dosage 5 kg/ha; sprayed after emergence; judged 14 days after treatment
Outline: as §5

[15] = system: cocklebur (Xanthium strumarium L.), Xs; experiment: as above; settings: dosage 5 kg/ha; sprayed after emergence; judged 14 days after treatment
Outline: as §5

[16] = system: forxtail grass (Alopecurus aequalis var. amurensis Ohwi), Am; experiment: as above; settings: dosage 5 kg/ha; sprayed after emergence; judged 14 days after treatment
Outline: as §5

[17] = system: velvetleaf (Abutilon theophtasti L.), At; experiment: as above; settings: dosage 5 kg/ha; sprayed after emergence; judged 14 days after treatment
Outline: as §5

soybean plant = experiment: Test Example 4: phytotoxicity to upland crop plants, treatment after emergence; settings: dosage 5 kg/ha, sprayed after emergence, judged 14 days after treatment
Outline: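 Weeds and soybean grown in soil-filled vats to set leaf stages, then sprayed post-emergence with the compound at a prescribed concentration. Weed-killing rate and crop phytotoxicity judged 14 days after treatment.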

wheat = experiment: as above; settings: dosage 5 kg/ha, sprayed after emergence, judged 14 days after treatment
Outline: as §5

SMILES | Pre-emergence treatment Barnyard grass (herbicidal effect) [1] | Pre-emergence treatment Bulrush (herbicidal effect) [2] | Post-emergence treatment Barnyard grass (herbicidal effect) [3] | Post-emergence treatment Bulrush (herbicidal effect) [4] | Post-emergence treatment Monochoria (herbicidal effect) [5] | Herbicidal effect Ec [6] | Herbicidal effect Vp [7] | Herbicidal effect Ga [8] | Herbicidal effect Xs [9] | Herbicidal effect Am [10] | Herbicidal effect At [11] | Phytotoxicity So (soybean plant (So)) | Phytotoxicity Wh (wheat (Wh)) | Herbicidal effect Ec [12] | Herbicidal effect Vp [13] | Herbicidal effect Ga [14] | Herbicidal effect Xs [15] | Herbicidal effect Am [16] | Herbicidal effect At [17] | Phytotoxicity So (soybean plant) | also measured
CCc1ccc(Cl)c(CC)c1NC(=O)c1nc2ccccc2nc1C(=O)NCC(C)(C)C [compound 1314] | 5 (Weed-killing rate is 100%.) | 5 (Weed-killing rate is 100%.) | 4 (Weed-killing rate is 90-99%.) | 4 (Weed-killing rate is 90-99%.) | 5 (Weed-killing rate is 100%.) | 5 (Weed-killing rate is 100%.) | 5 (Weed-killing rate is 100%.) | 4 (Weed-killing rate is 90-99%.) | 4 (Weed-killing rate is 90-99%.) | 5 (Weed-killing rate is 100%.) | 5 (Weed-killing rate is 100%.) | 3 (Crop-killing rate is 70-89%.) | 4 (Crop-killing rate is 90-99%.) | 5 (Weed-killing rate is 100%.) | 5 (Weed-killing rate is 100%.) | 4 (Weed-killing rate is 90-99%.) | 4 (Weed-killing rate is 90-99%.) | 5 (Weed-killing rate is 100%.) | 5 (Weed-killing rate is 100%.) | 4 (Crop-killing rate is 90-99%.) | Phytotoxicity Wh (wheat): 4 (Crop-killing rate is 90-99%.)
CCc1ccc(Cl)c(CC)c1NC(=O)c1nc2ccccc2nc1C(=O)NC1CCCC1 [compound 1315] | 5 (Weed-killing rate is 100%.) | 5 (Weed-killing rate is 100%.) | 5 (Weed-killing rate is 100%.) | 5 (Weed-killing rate is 100%.) | 5 (Weed-killing rate is 100%.) | 5 (Weed-killing rate is 100%.) | 5 (Weed-killing rate is 100%.) | 5 (Weed-killing rate is 100%.) | 5 (Weed-killing rate is 100%.) | 5 (Weed-killing rate is 100%.) | 5 (Weed-killing rate is 100%.) | 5 (Crop-killing rate is 100%.) | 5 (Crop-killing rate is 100%.) | 5 (Weed-killing rate is 100%.) | 5 (Weed-killing rate is 100%.) | 5 (Weed-killing rate is 100%.) | 5 (Weed-killing rate is 100%.) | 5 (Weed-killing rate is 100%.) | 5 (Weed-killing rate is 100%.) | 5 (Crop-killing rate is 100%.) | Phytotoxicity Wh (wheat): 5 (Crop-killing rate is 100%.)
CCCNC(=O)c1nc2ccccc2nc1C(=O)Nc1cccc(Cl)c1C [compound 1318] | 5 (Weed-killing rate is 100%.) | 4 (Weed-killing rate is 90-99%.) | 4 (Weed-killing rate is 90-99%.) | 4 (Weed-killing rate is 90-99%.) | 5 (Weed-killing rate is 100%.) | 5 (Weed-killing rate is 100%.) | 5 (Weed-killing rate is 100%.) | 4 (Weed-killing rate is 90-99%.) | 4 (Weed-killing rate is 90-99%.) | 5 (Weed-killing rate is 100%.) | 5 (Weed-killing rate is 100%.) | 3 (Crop-killing rate is 70-89%.) | 5 (Crop-killing rate is 100%.) | 5 (Weed-killing rate is 100%.) | 5 (Weed-killing rate is 100%.) | 5 (Weed-killing rate is 100%.) | 4 (Weed-killing rate is 90-99%.) | 5 (Weed-killing rate is 100%.) | 5 (Weed-killing rate is 100%.) | 3 (Crop-killing rate is 70-89%.) | Phytotoxicity Wh (wheat): 4 (Crop-killing rate is 90-99%.)
Cc1c(Cl)cccc1NC(=O)c1nc2ccccc2nc1C(=O)NC1CCCC1 [compound 1327] | 5 (Weed-killing rate is 100%.) | 4 (Weed-killing rate is 90-99%.) | 4 (Weed-killing rate is 90-99%.) | 4 (Weed-killing rate is 90-99%.) | 5 (Weed-killing rate is 100%.) | 5 (Weed-killing rate is 100%.) | 5 (Weed-killing rate is 100%.) | 4 (Weed-killing rate is 90-99%.) | 4 (Weed-killing rate is 90-99%.) | 5 (Weed-killing rate is 100%.) | 5 (Weed-killing rate is 100%.) | 3 (Crop-killing rate is 70-89%.) | 5 (Crop-killing rate is 100%.) | 5 (Weed-killing rate is 100%.) | 5 (Weed-killing rate is 100%.) | 5 (Weed-killing rate is 100%.) | 4 (Weed-killing rate is 90-99%.) | 5 (Weed-killing rate is 100%.) | 5 (Weed-killing rate is 100%.) | 3 (Crop-killing rate is 70-89%.) | Phytotoxicity Wh (wheat): 4 (Crop-killing rate is 90-99%.)
